Results reported in ChEMBL document CHEMBL3885881, “DrugMatrix”.

Organism: Rattus norvegicus
Assay: DrugMatrix - Regimen: Daily Repeat
Assay type: toxicity, organism-based, Sprague-Dawley
Set-up: regimen Daily Repeat, gender Male, age 6-8 weeks
Conditions: in vivo, po, route oral GAVAGE, vehicle .5 % CMC; for ABSOLUTE BASOPHIL / ABSOLUTE EOSINOPHIL / ABSOLUTE LYMPHOCYTE / ABSOLUTE MONOCYTE / ABSOLUTE SEGMENTED NEUTROPHIL / BASOPHIL / EOSINOPHIL / ERYTHROCYTE COUNT / HEMATOCRIT / HEMOGLOBIN / LEUKOCYTE COUNT / LYMPHOCYTE / MEAN CORPUSCULAR HEMOGLOBIN / MEAN CORPUSCULAR HEMOGLOBIN CONCENTRATION / MEAN CORPUSCULAR VOLUME / MONOCYTE / NEUTROPHIL / NUCLEATED RED BLOOD CELLS / PLATELET COUNT: tissue Blood; for ALANINE AMINOTRANSFERASE / ALBUMIN / ALKALINE PHOSPHATASE / ASPARTATE AMINOTRANSFERASE / BLOOD UREA NITROGEN / CARBON DIOXIDE / CHLORIDE / CHOLESTEROL / CREATINE PHOSPHOKINASE / CREATININE / GLUCOSE / LACTATE DEHYDROGENASE / LIPASE / PHOSPHORUS / POTASSIUM / SODIUM / TOTAL BILIRUBIN / TOTAL PROTEIN / URIC ACID: tissue Plasma
[1] = 2000 mg/kg, 120 h, dose level High, time 5 day
[2] = […], 72 h, dose 9.5 mg/Kg, dose level Low, time 3 day
[3] = […], 120 h, dose 9.5 mg/Kg, dose level Low, time 5 day

## O=C1Nc2ccc(Cl)cc2C(c2ccccc2Cl)=NC1O (centres undefined) [LORAZEPAM]
[1]
  ABSOLUTE BASOPHIL: 0 CELLS/uL
  ABSOLUTE EOSINOPHIL: 0 CELLS/uL
  ABSOLUTE LYMPHOCYTE: 9298.5 CELLS/uL
  ABSOLUTE MONOCYTE: 148 CELLS/uL
  ABSOLUTE SEGMENTED NEUTROPHIL: 903.5 CELLS/uL
  BASOPHIL: 0%
  EOSINOPHIL: 0%
  ERYTHROCYTE COUNT: 6.25 x10E6/uL
  HEMATOCRIT: 36.95%
  HEMOGLOBIN: 14.95 G/DL
  LEUKOCYTE COUNT: 10.35 x10E3/uL
  LYMPHOCYTE: 89%
  MEAN CORPUSCULAR HEMOGLOBIN: 23.95 pg
  MEAN CORPUSCULAR HEMOGLOBIN CONCENTRATION: 40.5 G/DL
  MEAN CORPUSCULAR VOLUME: 59.1 fL
  MONOCYTE: 1.5%
  NEUTROPHIL: 9.5%
  NUCLEATED RED BLOOD CELLS: 0 /100WBC
  PLATELET COUNT: 1267 x10E3/uL
  ALANINE AMINOTRANSFERASE: 64.5 u/L
  ALBUMIN: 4.15 G/DL
  ALKALINE PHOSPHATASE: 283.5 u/L
  ASPARTATE AMINOTRANSFERASE: 92 u/L
  BLOOD UREA NITROGEN: 21.5 mg/dL
  CARBON DIOXIDE: 29.5 mmol/L
  CHLORIDE: 100.5 MEQ/L
  CHOLESTEROL: 76.5 mg/dL
  CREATINE PHOSPHOKINASE: 814 u/L
  CREATININE: 0.18 mg/dL
  GLUCOSE: 150.5 mg/dL
  LACTATE DEHYDROGENASE: 206 u/L
  LIPASE: 17.5 u/L
  PHOSPHORUS: 8.55 mg/dL
  POTASSIUM: 5.62 MEQ/L
  SODIUM: 145.4 MEQ/L
  TOTAL BILIRUBIN: 0.1 mg/dL
  TOTAL PROTEIN: 6.2 G/DL
  URIC ACID: 0.65 mg/dL
[2]
  ABSOLUTE BASOPHIL: 0 CELLS/uL
  ABSOLUTE EOSINOPHIL: 223.33 CELLS/uL
  ABSOLUTE LYMPHOCYTE: 14276.33 CELLS/uL
  ABSOLUTE MONOCYTE: 155.67 CELLS/uL
  ABSOLUTE SEGMENTED NEUTROPHIL: 1244.67 CELLS/uL
  BASOPHIL: 0%
  EOSINOPHIL: 1.33%
  ERYTHROCYTE COUNT: 5.67 x10E6/uL
  HEMATOCRIT: 36.03%
  HEMOGLOBIN: 13.93 G/DL
  LEUKOCYTE COUNT: 15.9 x10E3/uL
  LYMPHOCYTE: 89.67%
  MEAN CORPUSCULAR HEMOGLOBIN: 24.57 pg
  MEAN CORPUSCULAR HEMOGLOBIN CONCENTRATION: 38.67 G/DL
  MEAN CORPUSCULAR VOLUME: 63.57 fL
  MONOCYTE: 1%
  NEUTROPHIL: 8%
  NUCLEATED RED BLOOD CELLS: 0 /100WBC
  PLATELET COUNT: 1298 x10E3/uL
  ALANINE AMINOTRANSFERASE: 70 u/L
  ALBUMIN: 4.33 G/DL
  ALKALINE PHOSPHATASE: 451.67 u/L
  ASPARTATE AMINOTRANSFERASE: 99.67 u/L
  BLOOD UREA NITROGEN: 17.33 mg/dL
  CARBON DIOXIDE: 24 mmol/L
  CHLORIDE: 102.67 MEQ/L
  CHOLESTEROL: 65.67 mg/dL
  CREATINE PHOSPHOKINASE: 485.67 u/L
  CREATININE: 0.22 mg/dL
  GLUCOSE: 158 mg/dL
  LACTATE DEHYDROGENASE: 594 u/L
  LIPASE: 11 u/L
  PHOSPHORUS: 10.17 mg/dL
  POTASSIUM: 6.03 MEQ/L
  SODIUM: 142.63 MEQ/L
  TOTAL BILIRUBIN: 0.13 mg/dL
  TOTAL PROTEIN: 5.93 G/DL
  URIC ACID: 1.43 mg/dL
[3]
  ABSOLUTE BASOPHIL: 0 CELLS/uL
  ABSOLUTE EOSINOPHIL: 0 CELLS/uL
  ABSOLUTE LYMPHOCYTE: 12357 CELLS/uL
  ABSOLUTE MONOCYTE: 82 CELLS/uL
  ABSOLUTE SEGMENTED NEUTROPHIL: 461 CELLS/uL
  BASOPHIL: 0%
  EOSINOPHIL: 0%
  ERYTHROCYTE COUNT: 6.11 x10E6/uL
  HEMATOCRIT: 37.87%
  HEMOGLOBIN: 14.63 G/DL
  LEUKOCYTE COUNT: 12.9 x10E3/uL
  LYMPHOCYTE: 95.67%
  MEAN CORPUSCULAR HEMOGLOBIN: 23.97 pg
  MEAN CORPUSCULAR HEMOGLOBIN CONCENTRATION: 38.63 G/DL
  MEAN CORPUSCULAR VOLUME: 62.07 fL
  MONOCYTE: 0.67%
  NEUTROPHIL: 3.67%
  NUCLEATED RED BLOOD CELLS: 0 /100WBC
  PLATELET COUNT: 1313 x10E3/uL
  ALANINE AMINOTRANSFERASE: 62 u/L
  ALBUMIN: 4.13 G/DL
  ALKALINE PHOSPHATASE: 373.33 u/L
  ASPARTATE AMINOTRANSFERASE: 87.67 u/L
  BLOOD UREA NITROGEN: 12 mg/dL
  CARBON DIOXIDE: 25 mmol/L
  CHLORIDE: 104.33 MEQ/L
  CHOLESTEROL: 26.67 mg/dL
  CREATINE PHOSPHOKINASE: 550.33 u/L
  CREATININE: 0.15 mg/dL
  GLUCOSE: 136.33 mg/dL
  LACTATE DEHYDROGENASE: 527.67 u/L
  LIPASE: 9.33 u/L
  PHOSPHORUS: 10.97 mg/dL
  POTASSIUM: 6.04 MEQ/L
  SODIUM: 143.63 MEQ/L
  TOTAL BILIRUBIN: 0.13 mg/dL
  TOTAL PROTEIN: 5.8 G/DL
  URIC ACID: 1.67 mg/dL
